Data reported in publication PMC8986778, “Citrullination of glucokinase is linked to autoimmune diabetes” (Nature Communications, 2022).
Read-outs that look alike come from different tables or passages of the source. One block for each molecule: values may come before it. Non-standard residues stand in square brackets, D forms with d. Residues, ends and D or L forms follow the SMILES beside them. Cit = NC(=O)NCCC[C@H](N)C(=O)O

Tests used:
[1] = molecular target: T1, DR0401 protein (Homo sapiens, UniProt P01903+P01911, A100K/A169T/F76Y/I96L/K127E/L162R/M171V/N62H/P40V/Q125Y/R42H/S133A/S149N/S66Y/V115G/V209L/W38E); assay: DR0401 peptide binding competition assay; conditions: competition with biotin-HA306-318 0.02 μM
T1 construct: made in house; host or cells: insect cell cultures

[2] = tested on: recombinant human pancreatic glucokinase; assay: Catalytic activity of recombinant human pancreatic glucokinase (G6PDH coupled assay); format: biochemical; parameters: catalytic activity: unit not given beside the values; conditions: for catalytic activity: source data sheet Fig 5c; for Vmax / Km: steady-state kinetics at 37 °C, Michaelis-Menten fit; for Vmax: glucose 0–50 mM; for Km: substrate glucose 0–50 mM
Description: For in vitro citrullination, 0.1U of rabbit peptidylarginine deiminase (PADI2; Sigma–Aldrich) were added to 50 µg of recombinant human pancreatic glucokinase (rhGK; LS-G3456, LSBio) in reaction buffer (0.1 M Tris-HCl, 10 mM CaCl2 and 5 mM DTT) at 37 °C for 2.5 hrs and kept at -80 °C in multiple aliquots to avoid freeze and thaw until used. Minimum 6 µg of rhGK and PAD-treated-rhGK were reduced, alkylated and tryptic digested for LS-MS/MS analysis. Data were collected on a QE-Plus mass spectrometer coupled to a NanoACQUITY UPLC (Waters Inc.). A Waters Symmetry® C18 180 μm × 20 mm trap column and a 1.7-μm, 75 μm × 250 mm nanoACQUITY UPLC column (35 °C) was utilized for the separation. Collected LC–MS/MS data were processed using Proteome Discoverer Software (v. 2.2, Thermo Fisher Scientific) and searched were carried out in MASCOT Search Engine (Matrix Science) using the below parameters; oxidation (M), deamidated (N/Q) and citrullination (R) as the variable modifications and carbamidomethylation (C) as a fixed modification. Mascot results were loaded into Scaffold Q + S 4.11.0 and then Scaffold PTM 3.3.0 was used to re-analyze MS/MS spectra identified as citrulline modified peptides. Calculated Ascore values for citrullinated peptides containing the neutral loss of isocyanic acid (−43 Da)[54] indicate the level of site localization probabilities to assess the level of confidence in each citrullination PTM localization. Scaffold PTM then combines localization probabilities for all peptides containing each identified PTM site to obtain the best estimated probability that a PTM is present at that particular site. Manual MS/MS inspection of the modified peptides were also carried out to ensure correct assignments/localizations of the citrullination sites (detailed MS/MS spectra are presented in Source Data-File 2 spreadsheet).
After in vitro citrullination by PAD as described above, recombinant human pancreatic glucokinase (rhGK; LS-G5486, LSBio) was put on the ice to stop the reaction for 5 min. Then glucokinase activity was measured spectrophotometrically (A340nm) at 37 °C by a glucose 6-phosphate dehydrogenase (G6PDH) coupled assay as described previously. In brief, 1 µg rhGK or PAD-treated rhGK was assayed in a reaction buffer containing 25 mM Hepes (pH7.3), 2 mM MgCl2, 1 mM DTT, 0.5 mM NADP, 2 mM ATP, 0.01%BSA, 20U/ml G6PDH and 25 mM D-( + )-glucose. Relative specific activity of glucokinase was calculated from linear regression of the change in A340nm. To determine the steady-state kinetic properties of both rhGK and PAD-treated rhGK, varying concentrations of D-( + )-glucose (0–50 mM) were used. Vmax and Km were calculated by Michaelis-Menten equation using GraphPad Prism Software.

[3] = Supplementary Table 2, read-out: IC50 (Binding of Predicted Glucokinase Peptides to DR04:01)
[4] = 25 mM glucose, 1 µg protein, replicate 1
[5] = 25 mM glucose, 1 µg protein, replicate 2

IC50 ([1]; Supplementary Table 3, representative values from two replicate experiments, read-out: IC50 (Effect of Citrulline or Arg Substitution)): 0.54 µM
Molecule: CC[C@H](C)[C@H](NC(=O)[C@H](CC(N)=O)NC(=O)[C@H](Cc1ccc(O)cc1)NC(=O)[C@@H](NC(=O)[C@H](CCC(N)=O)NC(=O)[C@@H](N)CCCCN)[C@@H](C)CC)C(=O)N[C@@H](CC(C)C)C(=O)N[C@@H](CO)C(=O)N[C@H](C(=O)N[C@@H](CC(C)C)C(=O)NCC(=O)N[C@@H](CC(C)C)C(=O)N[C@@H](CCCNC(N)=O)C(=O)N1CCC[C@H]1C(=O)N[C@@H](CO)C(=O)O)[C@@H](C)O [GK 346] (H-KQIYNILSTLGL[Cit]PS-OH)

IC50 [1, 3]: > 50 µM
Molecule: CC[C@H](C)[C@H](NC(=O)[C@H](CC(N)=O)NC(=O)[C@@H](N)Cc1ccc(O)cc1)C(=O)N[C@@H](CC(C)C)C(=O)N[C@@H](CO)C(=O)N[C@H](C(=O)N[C@@H](CC(C)C)C(=O)NCC(=O)N[C@@H](CC(C)C)C(=O)N[C@@H](CCCNC(N)=O)C(=O)N1CCC[C@H]1C(=O)N[C@@H](CO)C(=O)N[C@H](C(=O)N[C@H](C(=O)N[C@@H](CC(=O)O)C(=O)O)[C@@H](C)O)[C@@H](C)O)[C@@H](C)O [GK 349-363] (H-YNILSTLGL[Cit]PSTTD-OH; N-terminus and C-terminus assumed)

IC50 [1, 3]: > 50 µM
Molecule: CC[C@H](C)[C@H](NC(=O)[C@H](CC(=O)O)NC(=O)[C@H](CS)NC(=O)[C@H](CC(=O)O)NC(=O)[C@@H](NC(=O)[C@@H](NC(=O)[C@H](CO)NC(=O)[C@@H]1CCCN1C(=O)[C@H](CCCNC(N)=O)NC(=O)[C@H](CC(C)C)NC(=O)CNC(=O)[C@H](CC(C)C)NC(=O)[C@@H](NC(=O)[C@H](CO)NC(=O)[C@@H](N)CC(C)C)[C@@H](C)O)[C@@H](C)O)[C@@H](C)O)C(=O)O [GK 352-366] (H-LSTLGL[Cit]PSTTDCDI-OH; N-terminus and C-terminus assumed)

IC50 [1, 3]: > 50 µM
Molecule: CC[C@H](C)[C@H](NC(=O)[C@@H](N)CC(=O)O)C(=O)N[C@H](C(=O)N[C@@H](CCCNC(N)=O)C(=O)N[C@@H](CCCNC(=N)N)C(=O)N[C@@H](C)C(=O)N[C@@H](CS)C(=O)N[C@@H](CCC(=O)O)C(=O)N[C@@H](CO)C(=O)N[C@H](C(=O)N[C@@H](CO)C(=O)N[C@H](C(=O)N[C@@H](CCCNC(N)=O)C(=O)N[C@@H](C)C(=O)O)[C@@H](C)O)C(C)C)C(C)C [GK 365-378] (H-DIV[Cit]RACESVST[Cit]A-OH; N-terminus and C-terminus assumed)

IC50 [1, 3]: > 50 µM
Molecule: CC[C@H](C)[C@H](NC(=O)[C@@H](NC(=O)CNC(=O)[C@H](C)N)C(C)C)C(=O)N[C@@H](CC(N)=O)C(=O)N[C@@H](CCCNC(N)=O)C(=O)N[C@@H](CCSC)C(=O)N[C@@H](CCCNC(N)=O)C(=O)N[C@@H](CCC(=O)O)C(=O)N[C@@H](CO)C(=O)N[C@@H](CCCNC(N)=O)C(=O)N[C@@H](CO)C(=O)N[C@@H](CCC(=O)O)C(=O)N[C@@H](CC(=O)O)C(=O)N[C@H](C(=O)O)C(C)C [GK 387-401] (H-AGVIN[Cit]M[Cit]ES[Cit]SEDV-OH; N-terminus and C-terminus assumed)

IC50 [1, 3]: > 50 µM
Molecule: CC[C@H](C)[C@H](NC(=O)[C@H](CCCNC(N)=O)NC(=O)[C@H](CCSC)NC(=O)[C@@H](NC(=O)[C@H](CC(=O)O)NC(=O)[C@H](CCC(=O)O)NC(=O)[C@@H](N)CO)C(C)C)C(=O)N[C@H](C(=O)N[C@H](C(=O)NCC(=O)N[C@H](C(=O)N[C@@H](CC(=O)O)C(=O)NCC(=O)N[C@@H](CO)C(=O)N[C@H](C(=O)O)C(C)C)C(C)C)C(C)C)[C@@H](C)O [GK 398-412] (H-SEDVM[Cit]ITVGVDGSV-OH; N-terminus and C-terminus assumed)

IC50 [1, 3]: > 50 µM
Molecule: CC(C)C[C@H](NC(=O)[C@H](CCCCN)NC(=O)[C@H](Cc1ccc(O)cc1)NC(=O)[C@@H](NC(=O)[C@H](CO)NC(=O)CN)C(C)C)C(=O)N[C@@H](Cc1c[nH]cn1)C(=O)N1CCC[C@H]1C(=O)N[C@@H](CO)C(=O)N[C@@H](Cc1ccccc1)C(=O)N[C@@H](CCCCN)C(=O)N[C@@H](CCC(=O)O)C(=O)N[C@@H](CCCNC(N)=O)C(=O)N[C@@H](Cc1ccccc1)C(=O)N[C@@H](Cc1c[nH]cn1)C(=O)O [GK 410-424] (H-GSVYKLHPSFKE[Cit]FH-OH; N-terminus and C-terminus assumed)

IC50 [1, 3]: > 50 µM
Molecule: CC(C)C[C@H](NC(=O)[C@H](CCCNC(N)=O)NC(=O)[C@H](CCCNC(=N)N)NC(=O)[C@@H](NC(=O)[C@H](CO)NC(=O)[C@H](C)NC(=O)[C@H](Cc1c[nH]cn1)NC(=O)[C@H](Cc1ccccc1)NC(=O)[C@H](CCCNC(N)=O)NC(=O)[C@H](CCC(=O)O)NC(=O)[C@H](CCCCN)NC(=O)[C@H](Cc1ccccc1)NC(=O)[C@H](CO)NC(=O)[C@@H]1CCCN1C(=O)[C@@H](N)Cc1c[nH]cn1)C(C)C)C(=O)O [GK 416-439] (H-HPSFKE[Cit]FHASVR[Cit]L-OH; N-terminus and C-terminus assumed)

IC50 [1, 3]: > 50 µM
Molecule: CC[C@H](C)[C@H](NC(=O)[C@H](Cc1ccccc1)NC(=O)[C@@H](NC(=O)[C@@H](NC(=O)[C@@H](N)CCC(=O)O)[C@@H](C)CC)[C@@H](C)O)C(=O)N[C@@H](CCC(=O)O)C(=O)N[C@@H](CO)C(=O)N[C@@H](CCC(=O)O)C(=O)N[C@@H](CCC(=O)O)C(=O)NCC(=O)N[C@@H](CO)C(=O)NCC(=O)N[C@@H](CCCNC(N)=O)C(=O)NCC(=O)N[C@@H](C)C(=O)O [GK 435-449] (H-EITFIESEEGSG[Cit]GA-OH; N-terminus and C-terminus assumed)

Molecule: PAD-treated rhGK: rhGK citrullinated in vitro by rabbit peptidylarginine deiminase (PADI2)
reduction of catalytic activity by citrullination ([2]; 25 mM glucose, 1 µg protein, versus native rhGK): 20% | catalytic activity [2, 4]: 56.53 | catalytic activity [2, 5]: 60.82 | Vmax [2]: 119.9 ± 7.7 µmol/mg/min | Km [2]: 16.2 ± 2.3 mM

Molecule: rhGK: Recombinant human pancreatic glucokinase
catalytic activity [2, 4]: 72.34 | catalytic activity [2, 5]: 76.63 | Vmax [2]: 115.1 ± 10.5 µmol/mg/min | Km [2]: 8.48 ± 2.1 mM
